Patent EP1170007A1, “REMEDIES” (Takara Shuzo Co, Ltd., priority 1999, dated 2000)
Several values for one entry are separate records, joined by “and”; a condition that tells them apart may be missing. Equal entries are not always repeated.

Columns and labels:
mouse = test: Single oral dose toxicity in mouse; format: in vivo; details: mouse, in vivo, po, 100 mg/kg
[1] = tested on: nerve growth factor production by L-M cells; test: Enhancement of nerve growth factor production in L-M cells (enzyme immunoassay); format: cell-based, Rat
Protocol: Rat fibroblast L-M cells (ATCC CCL-1.2) were suspended in a M199 medium (Gibco) containing 0.5% Bacto Peptone (Gibco) at a concentration of 1.0 x 10^5 cells/ml. 1 ml of the suspension was inoculated into each well of a 24-well plate. The cells were cultured aseptically. After culturing for 2 days, the medium was removed and substituted with a M199 medium containing 0.5% bovine serum albumin (Sigma). Then, cyclopentenone (final concentration of 1 to 25 µM), 4HCP (Aldrich) (final concentration of 12.5µM) or dipropionylcyclopentenone (final concentration of 3.1 to 9.4 µM) was added thereto. […]
After completion of the incubation, the concentration of nerve growth factor in the culture was measured by enzyme immunoassay (NGF Emax Immuno Assay System: Promega). […]

[2] = tested on: HGF production, MRC-5 cells; test: Enhancement of HGF production in MRC-5 cells (ELISA); format: cell-based, Human; details: for Increase in HGF production: 24 hours, negative control defined as 100% (7.2 ng/ml)
Protocol: MRC-5 cells (CCL171, Dainippon Pharmaceutical) were suspended in a DME medium (Bio Whittaker) containing 10% fetal calf serum at a concentration of 1 x 10^5 cells/ml. 500 µl of the suspension was placed into a 48-well cell culture plate. After culturing at 37°C in the presence of 5% CO2 for 24 hours, the medium was exchanged for a DME medium containing 1% fetal calf serum. Then, one of samples was added thereto. The plate was incubated for additional 24 hours. The medium was then recovered, and the amount of HGF in the culture medium was measured using Quantikine Human Hepatocyte Growth Factor (HGF) ELISA Kit (Funakoshi). The amount of HGF produced was expressed defining a negative control as 100%. In this case, the amount of HGF produced for the negative control was 7.2 ng/ml. Cyclopentenone (at a final concentration of 20, 40 or 160 µM), GM (at a final concentration of 20, 40, 80 or 160 µM), or dipropionylcyclopentenone (at a final concentration of 32 or 64 µM) was added as a sample. As a negative control, distilled water was added in the same volume as the sample. As a positive control, prostaglandin E1 was added at a final concentration of 0.01, 0.1, 1 or 10 µM.

interleukin-12 = test: Intraperitoneal interleukin-12 in mice inoculated with Ehrlich cancer cells (ELISA); format: in vivo, ddY mouse; details: for Amount of intraperitoneal interleukin-12: 10 mg/kg intraperitoneally 1 day after inoculation, individual mice
Protocol: ddY mouse (female, 5 weeks old, weighing about 25 g) purchased from Japan SLC was used for experiments after preliminary breeding for 1 week. 1 x 10^6 Ehrlich cancer cells were intraperitoneally inoculated into the mouse. 10 mg/kg of cyclopentenone was intraperitoneally administered 1 day after the inoculation. The mouse was sacrificed by decapitating and exsanguinating 8 or 12 days after the inoculation with cancer cells. 2 ml, which is the same volume as that of ascites retained in the control mouse, of PBS (-) (Nissui Pharmaceutical) containing 1% bovine serum albumin (Sigma) was intraperitoneally injected into the mouse, which was recovered after extensive massage. For a control group, ascites was directly recovered. The recovered ascites and peritoneal lavage fluid were centrifuged at 2000 rpm for 5 minutes to recover supernatants. The supernatants were used to quantify the amounts of interleukin-12 using an ELISA kit for mouse interleukin-12 measurement (Endogen).

`O=C1C=CC(O)C1O` (stereo not shown) [cyclopentenone, 4,5-dihydroxy-2-cyclopenten-1-one] was tested, and the “death after single oral dose” value (mouse) was “no example of death was observed”, the “Nerve growth factor concentration” value ([1]; 1 µM, 24 hours, 0 µM control 0.570) was 0.700 ng/mL and the “Nerve growth factor concentration” value ([1]; 2.5 µM, 24 hours, 0 µM control 0.570) was 0.740 ng/mL. For the same compound, the “Nerve growth factor concentration” value ([1]; 5 µM, 24 hours, 0 µM control 0.570) was 0.870 ng/mL, the “Nerve growth factor concentration” value ([1]; 7.5 µM, 24 hours, 0 µM control 0.570) was 0.900 ng/mL and the “Nerve growth factor concentration” value ([1]; 10 µM, 24 hours, 0 µM control 0.570) was 1.080 ng/mL. The “Nerve growth factor concentration” value ([1]; 12.5 µM, 24 hours, 0 µM control 0.570) was 1.340 ng/mL, the “Nerve growth factor concentration” value ([1]; 15 µM, 24 hours, 0 µM control 0.570) was 1.550 ng/mL and the “Nerve growth factor concentration” value ([1]; 17.5 µM, 24 hours, 0 µM control 0.570) was 2.150 ng/mL. For the same compound, the “Nerve growth factor concentration” value ([1]; 20 µM, 24 hours, 0 µM control 0.570) was 1.900 ng/mL, the “Nerve growth factor concentration” value ([1]; 25 µM, 24 hours, 0 µM control 0.570) was 1.540 ng/mL and the “production of nerve growth factor by L-M cells (result in words)” value ([1]; 24 hours incubation) was “enhanced the production of nerve growth factor by L-M cells in a concentration-dependent manner”. For the same compound, the “Nerve growth factor concentration” value ([1]; time course: 15 µM, cultivation time 0 hour, control 0.000) was 0.000 ng/mL, the “Nerve growth factor concentration” value ([1]; time course: 15 µM, cultivation time 3 hour, control 0.028) was 0.050 ng/mL and the “Nerve growth factor concentration” value ([1]; time course: 15 µM, cultivation time 6 hour, control 0.233) was 0.359 ng/mL. The “Nerve growth factor concentration” value ([1]; time course: 15 µM, cultivation time 12 hour, control 0.575) was 0.686 ng/mL, the “Nerve growth factor concentration” value ([1]; time course: 15 µM, cultivation time 24 hour, control 0.658) was 1.186 ng/mL and the “Nerve growth factor concentration” value ([1]; time course: 15 µM, cultivation time 48 hour, control 0.736) was 1.236 ng/mL. The “Nerve growth factor concentration” value ([1]; time course: 17.5 µM, cultivation time 0 hour, control 0.000) was 0.000 ng/mL, the “Nerve growth factor concentration” value ([1]; time course: 17.5 µM, cultivation time 3 hour, control 0.028) was 0.054 ng/mL and the “Nerve growth factor concentration” value ([1]; time course: 17.5 µM, cultivation time 6 hour, control 0.233) was 0.205 ng/mL. The “Nerve growth factor concentration” value ([1]; time course: 17.5 µM, cultivation time 12 hour, control 0.575) was 0.635 ng/mL, the “Nerve growth factor concentration” value ([1]; time course: 17.5 µM, cultivation time 24 hour, control 0.658) was 1.535 ng/mL and the “Nerve growth factor concentration” value ([1]; time course: 17.5 µM, cultivation time 48 hour, control 0.736) was 1.492 ng/mL. The “Nerve growth factor concentration” value ([1]; time course: 20 µM, cultivation time 0 hour, control 0.000) was 0.000 ng/mL, the “Nerve growth factor concentration” value ([1]; time course: 20 µM, cultivation time 3 hour, control 0.028) was 0.082 ng/mL and the “Nerve growth factor concentration” value ([1]; time course: 20 µM, cultivation time 6 hour, control 0.233) was 0.179 ng/mL. The “Nerve growth factor concentration” value ([1]; time course: 20 µM, cultivation time 12 hour, control 0.575) was 0.581 ng/mL, the “Nerve growth factor concentration” value ([1]; time course: 20 µM, cultivation time 24 hour, control 0.658) was 1.681 ng/mL and the “Nerve growth factor concentration” value ([1]; time course: 20 µM, cultivation time 48 hour, control 0.736) was 1.874 ng/mL. The “Increase in HGF production” value ([2]; 20 µM) was 144%, the “Increase in HGF production” value ([2]; 40 µM) was 218% and the “Increase in HGF production” value ([2]; 160 µM) was 238%. The “amount of HGF produced as compared with the negative control (result in words)” value ([2]; negative control: distilled water) was “significantly increased”, the “Amount of intraperitoneal interleukin-12” value (interleukin-12; After 8 Days, control group ND) was 11.0 pg/mL and 100.0 pg/mL and 25.0 pg/mL and the “Amount of intraperitoneal interleukin-12” value (interleukin-12; After 12 Days, control group all dead) was 43.0 pg/mL and 97.2 pg/mL and 66.4 pg/mL. For the same compound, the “activity of enhancing interleukin-12 production (result in words)” value (interleukin-12; Ehrlich cancer cell inoculated mice) was “an activity of enhancing interleukin-12 production by cyclopentenone was observed for each mouse”.
